Assay results: ChEMBL document CHEMBL4043095, “Cyclic MOG35-55 ameliorates clinical and neuropathological features of experimental autoimmune encephalomyelitis” (2017)
Values belong to the compound of their own block, whether it stands above or below them. Activity calls are given as the source filed them. The rule behind the calls is not given here. Residues, ends and D or L forms follow the SMILES beside them.

Legend:
[1] = target: HLA-DRB2 protein (Homo sapiens) (UniProt Q30155); assay: Inhibition of AMCA-labeled MBP (83 to 99) binding to HLA-DR2b […] in human HTC-Lan B cells at 10 fold excess after 48 hrs by fluorescence spectrophotometric method; assay type: cell-based
HLA-DRB2 protein (Homo sapiens), sequence (Q30155 as listed by the source): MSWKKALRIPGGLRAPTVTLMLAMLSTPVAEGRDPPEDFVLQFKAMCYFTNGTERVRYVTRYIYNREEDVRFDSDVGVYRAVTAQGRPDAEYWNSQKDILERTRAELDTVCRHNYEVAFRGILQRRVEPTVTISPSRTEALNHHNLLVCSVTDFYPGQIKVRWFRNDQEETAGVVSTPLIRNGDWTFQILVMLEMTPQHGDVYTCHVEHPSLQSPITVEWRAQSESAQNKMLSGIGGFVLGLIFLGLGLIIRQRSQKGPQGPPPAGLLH

[2] = target: HLA-DRB2 protein (Homo sapiens) (UniProt Q30155); assay: Inhibition of AMCA-labeled MBP (83 to 99) binding to HLA-DR2b […] in human HTC-Lan B cells at 20 fold excess after 48 hrs by fluorescence spectrophotometric method; assay type: cell-based
Mus musculus [3] = assay: (§1) Immunomodulatory activity in C57BL/6 mouse subcutaneously immunized using 1:1 mixture of linear and cyclic MOG35 to 55 peptide in presence of complete Freunds adjuvant (CFA) followed by intraperitoneal pertussis toxin assessed as reduction in overall disease burden measured 46 days post disease induction; assay type: functional
Mus musculus [4] = assay: as §1, with “16” for “46”; assay type: functional
Mus musculus [5] = assay: (§2) Antiinflammatory activity in C57BL/6 mouse EAE model subcutaneously immunized using 1:1 mixture of linear and cyclic MOG35 to 55 peptide in presence of complete Freunds adjuvant (CFA) followed by intraperitoneal pertussis toxin assessed as reduction in size of inflammatory foci measured 46 days post disease induction by Bielschowsky silver impregnation staining method combined with haematoxylin staining-based assay; assay type: functional
Mus musculus [6] = assay: as §2, with “16” for “46”; assay type: functional
Mus musculus [7] = assay: as §2, with “Luxol fast blue (LFB)” for “Bielschowsky silver impregnation”, “counterstained” for “method combined”, “Nuclear fast Red” for “haematoxylin”; assay type: functional
Mus musculus [8] = assay: as §2, with “16” for “46”, “Luxol fast blue (LFB)” for “Bielschowsky silver impregnation”, “counterstained” for “method combined”, “Nuclear fast Red” for “haematoxylin”; assay type: functional
Mus musculus [9] = assay: (§3) Antiinflammatory activity in C57BL/6 mouse EAE model subcutaneously immunized using 1:1 mixture of linear and cyclic MOG35 to 55 peptide in presence of complete Freunds adjuvant (CFA) followed by intraperitoneal pertussis toxin assessed as protection against axonal injury by measuring normal cell population in spinal cord measured 16 days post disease induction (reference value: 4.3%); assay type: functional
Mus musculus [10] = assay: as §3, with “as” for “as protection against”, “injury” for “injury by measuring normal cell population”, “15.2 to 42.4%)” for “4.3%)”; assay type: functional
Mus musculus [11] = assay: as §3, with “as” for “as protection against”, “injury” for “injury by measuring normal cell population”, “46” for “16”, “0.7 to 36%)” for “4.3%)”; assay type: functional
Mus musculus [12] = assay: as §3, with “loss” for “injury”; assay type: functional
Mus musculus [13] = assay: as §3, with “as” for “as protection against”, “loss” for “injury by measuring normal cell population”, “13 to 30.4%)” for “4.3%)”; assay type: functional
Mus musculus [14] = assay: as §2, with “demyelinating area” for “in size of inflammatory foci”, “Luxol fast blue (LFB)” for “Bielschowsky silver impregnation”, “counterstained” for “method combined”, “Nuclear fast Red” for “haematoxylin”; assay type: functional
Mus musculus [15] = assay: as §2, with “demyelinating area” for “in size of inflammatory foci”, “16” for “46”, “Luxol fast blue (LFB)” for “Bielschowsky silver impregnation”, “counterstained” for “method combined”, “Nuclear fast Red” for “haematoxylin”; assay type: functional
Mus musculus [16] = assay: as §2, with “demyelinating area” for “in size of inflammatory foci”; assay type: functional
Mus musculus [17] = assay: as §2, with “demyelinating area” for “in size of inflammatory foci”, “16” for “46”; assay type: functional
Mus musculus [18] = assay: as §3, with “46” for “16”, “32%)” for “4.3%)”; assay type: functional
Mus musculus [19] = assay: as §3, with “loss” for “injury”, “46” for “16”, “27.3%)” for “4.3%)”; assay type: functional
Mus musculus [20] = assay: as §3, with “as” for “as protection against”, “loss” for “injury by measuring normal cell population”, “46” for “16”, “4.7 to 26%)” for “4.3%)”; assay type: functional
[21] = target: HLA-DRB2 protein (Homo sapiens) (UniProt Q30155); assay: Inhibition of AMCA-labeled MBP (83 to 99) binding to HLA-DR2b […] in human HTC-Lan B cells at 50 fold excess after 48 hrs by fluorescence spectrophotometric method; assay type: cell-based

inhibition [1]: Active
Structure (SMILES): CC[C@H](C)[C@H](NC(=O)[C@H](CC(N)=O)NC(=O)[C@H](CCCCN)NC(=O)[C@H](Cc1ccccc1)NC(=O)[C@H](Cc1ccccc1)NC(=O)[C@H](Cc1cnc[nH]1)NC(=O)[C@@H](NC(=O)[C@@H](NC(=O)[C@@H]1CCCN1C(=O)[C@H](CC(N)=O)NC(=O)[C@@H](N)CCC(=O)O)C(C)C)C(C)C)C(=O)N[C@H](C(=O)N[C@H](C(=O)N1CCC[C@H]1C(=O)N[C@@H](CCCNC(=N)N)C(=O)N[C@H](C(=O)N1CCC[C@H]1C(=O)O)[C@@H](C)O)[C@@H](C)O)C(C)C

inhibition [2]: Active
Structure (SMILES): CSCC[C@H](N)C(=O)N[C@@H](CCC(=O)O)C(=O)N[C@H](C(=O)NCC(=O)N[C@@H](Cc1c[nH]c2ccccc12)C(=O)N[C@@H](Cc1ccc(O)cc1)C(=O)N[C@@H](CCCNC(=N)N)C(=O)N[C@@H](CO)C(=O)N1CCC[C@H]1C(=O)N[C@@H](Cc1ccccc1)C(=O)N[C@@H](CO)C(=O)N[C@@H](CCCNC(=N)N)C(=O)N[C@H](C(=O)N[C@H](C(=O)N[C@@H](Cc1cnc[nH]1)C(=O)N[C@@H](CC(C)C)C(=O)N[C@@H](Cc1ccc(O)cc1)C(=O)N[C@@H](CCCNC(=N)N)C(=O)N[C@@H](CC(N)=O)C(=O)NCC(=O)N[C@@H](CCCCN)C(=O)O)C(C)C)C(C)C)C(C)C (H-MEVGWYRSPFSRVVHLYRNGK-OH)

Structure (SMILES): CSCC[C@@H]1NC(=O)[C@H](CCCCN)NC(=O)CNC(=O)[C@H](CC(N)=O)NC(=O)[C@H](CCCNC(=N)N)NC(=O)[C@H](Cc2ccc(O)cc2)NC(=O)[C@H](CC(C)C)NC(=O)[C@H](Cc2cnc[nH]2)NC(=O)[C@H](C(C)C)NC(=O)[C@H](C(C)C)NC(=O)[C@H](CCCNC(=N)N)NC(=O)[C@H](CO)NC(=O)[C@H](Cc2ccccc2)NC(=O)[C@@H]2CCCN2C(=O)[C@H](CO)NC(=O)[C@H](CCCNC(=N)N)NC(=O)[C@H](Cc2ccc(O)cc2)NC(=O)[C@H](Cc2c[nH]c3ccccc23)NC(=O)CNC(=O)[C@H](C(C)C)NC(=O)[C@H](CCC(=O)O)NC1=O (cyclo(EVGWYRSPFSRVVHLYRNGKM))
Activity (Mus musculus [3]): Active
Activity (Mus musculus [4]): Active
Activity (Mus musculus [5]): Active
Activity (Mus musculus [6]): Active
Activity (Mus musculus [7]): Active
Activity (Mus musculus [8]): Active
Activity (Mus musculus [9]): 37.1%
Activity (Mus musculus [10]): 0.9 - 40.5%
Activity (Mus musculus [11]): 0.7 - 26.5%
Activity (Mus musculus [12]): 36.2%
Activity (Mus musculus [13]): 1.7 - 27.6%
Activity (Mus musculus [14]): Active
Activity (Mus musculus [15]): Active
Activity (Mus musculus [16]): Active
Activity (Mus musculus [17]): Active
Activity (Mus musculus [18]): 48.3%
Activity (Mus musculus [19]): 45.6%
Activity (Mus musculus [20]): 2 - 27.2%
inhibition [21]: Active
